According to patent publication US7648993B2, “Methods of treating disorders with Group I mGluR antagonists” (Brown University, priority 2001, dated 2010):

How the values were obtained:
[1] = test system: hippocampal slices from Fmr1-KO mice and wildtype littermates; assay: DHPG-induced mGluR-LTD of field potentials in hippocampal slices of Fmr1-KO and WT mice; type: cell-based, C57BL/6 congenic mice
Method: ACSF at a rate of 2 ml/min.
Fresh stocks were made once a week.

[2] = test system: high-density cultured hippocampal neurons; assay: Biotinylation and quantitative western blot of surface expressed receptors; type: cell-based, rat; settings: DHPG 50 μM, 5 min
Method: To confirm the effect of mGluR activation on surface AMPARs using an alternative approach, we treated high-density cultures with DHPG (50 μM, 5 min) or control medium and surface receptors were labeled with biotin 60 minutes later. Biotinylated receptors were precipitated and the ratio of surface to total GluR1 was determined by quantitative western blotting. This biochemical analysis confirmed that surface AMPARs are reduced by DHPG treatment to only 56.8±4.0% of the value in control cultures (n=4 in each treatment group; p<0.01; FIG. 6).
Biotinylation experiments were performed as previously described^35. Briefly, 2-week-old high-density cultured hippocampal neurons were treated with either control medium or 50 μM DHPG for 5 min, and incubated for 1 h at 37° C. to allow endocytosis to occur. The sister cultures were placed on ice to stop endocytosis and washed two times with ice-cold artificial cerebrospinal fluid (ACSF) containing 124 mM NaCl, 5 mM KCl, 1.25 mM NaH2PO4, 26 mM NaHCO3, 0.8 mM MgCl2, 1.8 mM CaCl2, 10 mM dextrose, and saturated with 95% O2, 5% CO2. Cultures were then incubated with ACSF containing 1 mg/ml Sulfo-NHS-LC-Biotin (Pierce Chemical Company, Rockford, Ill.) for 30 min on ice. Cultures were rinsed in TBS to quench the biotin reaction. […] Quantitative western blots were performed on both total and biotinylated (surface) proteins using anti-GluR1 C-terminal (1:1000, Upstate Biotechnology, Lake Placid, N.Y.) and anti-NR1 N-terminal antibodies (1:1000, Chemicon). […] Digital images, produced by densitometric scans of autoradiographs on a ScanJet IIcx (Hewlett Packard, Palo Alto, Calif.) with DeskScan II software (Hewlett Packard), were quantified using NIH Image 1.60 software. The surface/total ratio was calculated for each culture, and treatment groups were compared using a paired t-test. […] For display purposes, the data are expressed as the ratio of DHPG to control values.

[3] = test system: cultured hippocampal neurons; assay: Acid strip immunocytochemistry for internalized GluR1 (AMPARs); type: cell-based, rat
[4] = DHPG 100 μM, 5 min, in APV, 60 min after DHPG

SMILES: NC(C(=O)O)c1cc(O)cc(O)c1 (racemic) [DHPG, (RS)-3,5-dihydroxyphenylglycine]
- FP slope, % of pre-DHPG baseline, Fmr1-KO mice [1, 4]: 77±3%
- FP slope, % of pre-DHPG baseline, WT mice [1, 4]: 88±4%
- maximal acute depression, % of pre-DHPG baseline values, KO ([1]; DHPG, Fmr1-KO slices): 26±5%
- maximal acute depression, % of pre-DHPG baseline values, WT ([1]; DHPG, WT slices): 36±4%
- surface NR1 (surface/total), % of the value in control cultures ([2]; 60 minutes later, cycloheximide 60 μM with DHPG where named): 32.3±8.2%
- surface GluR1 (surface/total), % of the value in control cultures ([2]; biotin labeling 60 minutes later): 56.8±4.0%
- internalized GluR1 puncta ([3]; DHPG 50 μM, 5 min, 15 minutes after treatment onset): 1.44±0.17 puncta per 10 μm of dendrite
- internalized GluR1 puncta ([3]; DHPG 50 μM, 5 min, 1 hour): 1.14±0.15 puncta per 10 μm of dendrite
- internalized GluR1 puncta, APV experiment ([3]; DHPG 50 μM, 5 min, APV 50 μM): 1.49±0.22 puncta per 10 μm of dendrite
- internalized GluR1 puncta, LY344545 experiment ([3]; DHPG 50 μM, 5 min, LY344545 100 μM): 1.39±0.34 puncta per 10 μm of dendrite
- internalized GluR1 puncta, cycloheximide experiment ([3]; measured at 60 minutes, chx 60 μM applied 15 min before DHPG): 1.5±0.27 puncta per 10 μm of dendrite
